This is an account of results in publication PMC5766510, “Development of a PET radioligand for potassium channels to image CNS demyelination” (Scientific Reports, 2018).

Each structure is given as a SMILES string. Bounds are passed on as bounds.

Data set [1] has as its system K^+ channels in explanted mouse optic nerves. Nature of the data set: Compound action potential (CAP) of dissected mouse optic nerves. As to the method: Therefore, we tested the effects of these compounds on the compound action potential (CAP) of dysmyelinated optic nerves from control and Shiverer mice (Fig. 2E).
Optic nerves were dissected from 12–16 week old Shiverer (Mbp^shi/shi) and control mice (Mbp^+/shi and Mbp^+/+). Compound action potentials (CAP) were recorded using suction electrodes as described by Stys et al.[91]. See SI for additional details.
CI95 = [Upper Limit. Lower Limit]; where Upper Limit = 10^(logEC50+s.d.) and Lower Limit = 10^(logEC50−s.d.). […]
Dissection of optic nerves: Optic nerves were dissected from 12-16 week old Shiverer (Mbpshi/shi) and control mice (Mbp+/shi and Mbp+/+). Mice were euthanized by CO2 overdose and the optic nerves were quickly dissected between the eyeball and the optic chiasm. The nerves […]
Optic nerve electrophysiology: Compound action potentials (CAP) from dysmyelinated nerves (Shiverer mice, Mbpshi/shi) and myelinated nerves (litermate controls, Mbp+/shi and Mbp+/+) were […]
between two suction electrodes (stimulus and recording electrodes) forming a tight seal on each end. Two additional electrodes were placed in the bath for reference. A supramaximal pulse (250 mV, 20 μs) was applied at the stimulating end of the nerve. The resulting CAP was amplified from the recording electrode using a high impedance low-noise amplifier (EG&G Princeton Applied Research Corporation) sampled at 100 kHz and filtered at 10 kHz. To assess […]
concentrations to the recording chamber after the CAP was allowed to stabilize for 5 min while […]
pulsing repeatedly. After each measurement, the chamber was washed for 5 min (flow 1 […]
mL/min) with oxygenated aCSF. […]
conduction and the temperature was monitored throughout the experiment. CAP recordings were acquired with a SBC6711 board (Innovative Integration) controlled by in-house written software. Analysis of the traces was done using an in-house software. The half-maximal […]
amplitude vs. concentration and fitted to the Hill equation using Origin. […]
Compound action potential of nerve recorded by suction electrode: a theoretical and experimental analysis. […]

The nature of data set [2]: Partition coefficient octanol-water (logD). It counts as physicochemical. As to the method: The partition coefficient octanol-water at pH 7.4 was measured by adding 0.1 mg of the compound to a 10 mL 50:50 mixture of octanol:PBS. The vial was shaken vigorously followed by 1 min centrifugation at 1,000 g to separate the phases. The drug concentration in each phase of the drug was calculated from the area under the peak on reverse phase HPLC (10 μL sample) using a calibration curve.

The conditions of data set [3]: mouse, 1 h.
A short description of data set [4]: in vitro. Particulars: mouse, liver microsomes.
The conditions of data set [5]: estimated; cited from earlier work.
A short description of data set [6]: Parallel artificial membrane permeability assay (PAMPA). Particulars: PAMPA. In general terms: PAMPA measures passive passage across an artificial lipid membrane.
Data set [7] can be described thus: Organ distribution of PET tracer in mice by gamma counting. It counts as in vivo. Particulars: mouse, 30 min post intravenous injection, n = 4. As to the method:
Once we had generated the ^18F-labeled drug, we evaluated the uptake of the tracer in mouse blood, brain, liver and kidneys 30 min and 2 h post intravenous administration using automatic gamma counting. […] The uptake in the brain 30 min post injection was higher than blood (standard uptake value (SUV) = 4.71 ± 0.81 vs. 3.27 ± 0.35, n = 4, P = 0.024) providing a suitable time window to conduct PET imaging studies.
50–60 uCi of the [^18F]3-F-4-AP tracer was injected via tail vein to eight 8-week-old female B6 albino mice. At the specified times, the mice were euthanized by anesthetic overdose. Following euthanasia blood was collected by cardiac puncture and transferred to EDTA coated tubes. Other organs (brain, liver and kidneys) were collected by dissection and transferred to glass tubes. Radioactivity was measured using an automatic gamma counter (^18F protocol) and corrected for organ weight and injected dose. Using the original tracer solution, 8 standard solutions ranging from 20 μCi to 10^−5 μCi were prepared, analyzed by gamma counting and used as a calibration curve to correlate peak area of the samples to concentration. SUV was calculated as SUV = (dose organ/organ weight)/(dose injected/body weight) with dose corrected for decay.

Data set [8] relates to voltage-gated K^+ channels. Nature of the data set: PET/CT imaging in healthy rats. It counts as in vivo, rat. From the text: In order to evaluate the potential use of [^18F]3-F-4-AP as a PET tracer for the brain, we conducted PET combined with computed tomography (PET/CT) imaging in healthy rats after tail vein injection of [^18F]3-F-4-AP (0.15–0.30 μCi/g). We chose rats instead of mice because their larger brain size allows better spatial resolution. […] In order to overcome the limited intrinsic resolution of PET, we conducted ex vivo autoradiography in rats injected with [^18F]3-F-4-AP (1–2 μCi/g).
PET/CT imaging studies were carried out on a Trifoil Triumph™ Trimodality Preclinical microPET/SPECT/CT Imaging System (Norridge, CA) equipped with a X-PET detector constructed from BGO crystals. Rats were anesthetized with a mixture of 2% isoflurane and […] and kept under anesthesia throughout the whole procedure. A CT image was acquired first (at 40 kV, 140-uA beam current, and 256 projections, approx. 5 min). After the CT, 50–150 µCi of [^18F]3-F-4-AP was infused as a bolus through a tail vein injection port and a 25, 30 or 90 min list-mode PET scan performed. PET data are acquired using a sensitivity 5.9%, 250- to 750-keV energy window and 12-ns timing window in list-mode format with spatial resolution of 1.6–2.0 mm (FWHM), which can be binned into 3-dimensional (3D) sinograms corresponding to total and true events, respectively. Images were reconstructed using Fourier rebinning followed by a 2-dimensional ordered-subsets expectation maximization algorithm (OSEM) (4 iterations with 15 subsets). Reconstructed images were processed by using VivoQuant (inviCRO, LLC, Boston) version 2.1. Time activity curves were generated by processing the PET data in 5 min frames.

In data set [9] the test system is voltage-gated K^+ channels. Nature of the data set: Detection of demyelination by PET in LPC-injected rats. Particulars: PET 0-25 min. Type of data set: in vivo, rat. As to the method: After conducting PET imaging with [^18F]3-F-4-AP in healthy rats, we sought to evaluate the capability of this tracer to detect demyelination using the LPC-injection model. The main advantages of this model are that the localization of the lesion is known, that the time course of demyelination is well established, that there is no inflammation or disruption of the BBB, and that the signal in the lesioned area can be directly compared to the contralateral control area[69]. […] Rats were injected with 3 μL of saline (control group) or 1% LPC in saline (demyelination group) on the right side of the cerebellum, targeting the cerebellar white matter. Seven days post injection, which corresponds to the peak of demyelination, the animals were scanned using PET (0–25 min). Several hours after the PET scan, the animals were reinjected with [^18F]3F4AP and their brains studied by ex vivo autoradiography as previously described. Finally, following autoradiography the same tissue sections were stained with LFB. To analyze the data, we placed a spherical voxel of ~1.5 mm radius centered at the injection coordinates and compared the signal in this region with that of an equal size region at the contralateral hemisphere (Fig. 6A). […] Furthermore, there was excellent correlation between PET, ex vivo autoradiography and histological staining for myelin (Fig. 6C). For one animal, we performed serial autoradiography and staining throughout the whole cerebellum (Sup. Fig. 2). As shown in this figure, it is possible to clearly delineate where the lesion starts and finishes based on the autoradiographic signal.
A power analysis (power 0.8, α = 0.05) based on the autoradiography results was used to determine the number of rats needed to detect a statistically significant change in signal. Randomly selected rats were injected with lysolecithin or saline intracranially as described above. 0–25 min dynamic PET scan was performed 6–8 days post intracranial injection (peak of demyelination) after administration of 0.3–0.5 μCi/g. Within 24 h of the PET scan, the rats received a second dose of tracer (1–2 uCi/g), the animals were sacrificed 25 min post injection and their brains processed for autoradiography as described above. Image analyst was not blind to the treatment group. Post autoradiography, LFB staining was performed to assess demyelination. Animals showing physical damage to the brain due to the injection were excluded from the study. Brain ROI analysis was performed using reference atlas with VivoQuant version 2.1 (inviCRO, LLC, Boston).

In data set [10] the test system is voltage-gated K^+ channels. Briefly: PET imaging in healthy Rhesus macaques. Type of data set: in vivo, Rhesus monkeys (macaca mulatta). Particulars: Rhesus macaques. As to the method:
Whole body PET/CT imaging was carried out on a Siemens mCT PET/CT. Monkeys were sedated with ketamine and intubated. Following intubation monkeys were placed in prone position on the scanner bed face forward with their head immobilized in a stereotaxic frame. The animals were then anesthetized with 1% isoflurane and kept under anesthesia throughout the whole procedure. A CT image was acquired first (approx. 5 min). After the CT, 5 mCi in 8 mL of saline of [^18F]3-F-4-AP was infused as a bolus through the cubital vein. Scans were obtained in list mode and reconstructed with a 3D ordinary Poisson OSEM algorithm as 30 frames of data (2 × 15 secs, 4 × 30 secs, 8 × 60 secs, 8 × 120 secs, 8 × 240 secs). All activities were decay-corrected to the time of injection of the radiopharmaceutical. Reconstructed images were processed using VivoQuant. ROIs for the major organs were hand drawn based on the CT and used to calculate time-activity curves.
Focused high-resolution brain imaging in Rhesus macaques: brain PET imaging was carried out on a Siemens HRRT PET scanner. Monkeys were sedated with ketamine and intubated. Following intubation monkeys were placed in prone position on the scanner bed face forward with their head immobilized in a stereotaxic frame. The animals were then anesthetized with 1% isoflurane and kept under anesthesia throughout the whole procedure. Monkeys received 5 mCi of [^18F]3-F-4-AP as a bolus through the cubital vein. Scans were obtained in list mode and reconstructed with a 3D ordinary Poisson OSEM algorithm as […] frames of data (8 × 15 secs, 8 × 30 secs, 16 × 60 secs, 16 × 120 secs, 16 × 240 secs). All activities were decay-corrected to the time of injection of the radiopharmaceutical. Reconstructed images were processed using VivoQuant. The Rhesus brain atlas from VivoQuant was fitted to the data and used to calculate time-activity curves for 43 different brain regions.

Where [11] appears, read: LPC-injected rats, 7 days post injection, n = 4.
Where [12] appears, read: saline (vehicle only)-injected rats, n = 3.

The term logD denotes lipophilicity at a set pH, counting ionised and neutral species. By half-life is commonly meant how long it takes for the measured level to halve. For orientation: Papp means the rate of passage across a membrane or cell layer, normalised by area and donor concentration. Turning to `Nc1ccncc1` [4-AP, 4-aminopyridine], the “increases of the CAP amplitude” value in data set [1] (dysmyelinated nerves) is listed as 2–4 fold. Moreover, the EC50 in data set [1] (increase of maximum CAP amplitude, dysmyelinated (Shiverer) optic nerves, 22.2 °C, read-out: Half-maximal effective concentration (EC50)) amounted to 59.2 µM. Moreover, in [1] (normally myelinated nerves), the “increases in amplitude and duration of the action potential” value is reported as under 5%. Further, the “logD: experimental partition coefficient octanol:water” value in data set [2] (pH 7.4) stood at 0.21. Further, the log distribution coefficient (logD) in data set [2] (pH 7.4, logD: experimental partition coefficient octanol:water) came to 0.23. For the same molecule, the remaining in plasma in data set [3] is reported as over 90%. In [4], this molecule gave a half-life of 53 ± 10 min. In addition, in [5], the “concentration in the cerebrospinal fluid of patients taking the drug” value was “around 50 nM”. Moreover, the apparent permeability (Papp) in [6] was determined as 0.236 ± 0.003 ×10⁻⁶ cm/s.
As to `Nc1ccncc1[18F]` [[^18F]3-F-4-AP], in data set [7], the “standard uptake value (SUV) in blood” value is listed as 3.27 ± 0.35 and the “standard uptake value (SUV) in brain” value was 4.71 ± 0.81. For the same molecule, the “time of peak in brain time-activity curve” value in data set [8] (healthy rats, 0-90 min scan) was at most 5 min. Also, in data set [8] (healthy rats, 0 to 30 min), the SUV in cerebellum is 2.09 ± 0.44 and the SUV in cortex is reported as 3.24 ± 0.70. The “mean SUV for the whole brain” value in data set [8] (healthy rats, 0 to 30 min, n = 3) was found to be 2.91 ± 0.65. In data set [8] (rats, no radioactivity in skull, teeth or bone), the “defluorination in vivo” value is reported as “does not undergo defluorination in vivo”. In addition, in data set [9] (setting [11]), the “SUV, control side of cerebellum” value came to 2.60 ± 0.21 and the “SUV, injected side of cerebellum” value is listed as 3.54 ± 0.53. In data set [9] (setting [12]), the “SUV, control side of cerebellum” value was 2.67 ± 0.77 and the “SUV, injected side of cerebellum” value stood at 2.59 ± 0.78. In data set [10], the “peak SUV in selected brain regions” value is reported as 3.2–5.5 and the “time of peak SUV in selected brain regions” value lay in the range of 2 to 5 min. Besides, the “peak SUV for the whole brain” value in data set [10] (within the first five minutes) is reported as “around 4”. For the same molecule, the “defluorination in vivo” value in data set [10] (lack of bone uptake) was “not defluorinated in vivo”.
